Tests used:
[1] = molecular target: T1, hERG (hERG1a, Kv11.1) potassium channel (Homo sapiens, UniProt Q12809, Y652A); experiment: whole-cell patch clamp, tail current inhibition; assay type: cell-based
T1 construct: gene KCNH2; hERG1a Y652A transiently expressed in HEK293 cells

[2] = molecular target: T2, zebrafish ERG (zERG) (Danio rerio, UniProt A0A8M1PIE0); experiment: whole-cell patch clamp, current inhibition; assay type: cell-based
T2 construct: gene kcnh6a

[3] = molecular target: T3, hERG (hERG1a, Kv11.1) potassium channel (Homo sapiens, UniProt Q12809); experiment: whole-cell patch clamp, tail current inhibition; assay type: cell-based
T3 construct: gene KCNH2; WT hERG1a stably expressed in HEK293 cells

[4] = molecular target: T4, hERG (hERG1a, Kv11.1) potassium channel (Homo sapiens, UniProt Q12809, F656T); experiment: whole-cell patch clamp, tail current block by […]; assay type: cell-based
T4 construct: gene KCNH2; hERG1a F656T transiently expressed in HEK293 cells
T4 sequence (Q12809 whole entry F656T): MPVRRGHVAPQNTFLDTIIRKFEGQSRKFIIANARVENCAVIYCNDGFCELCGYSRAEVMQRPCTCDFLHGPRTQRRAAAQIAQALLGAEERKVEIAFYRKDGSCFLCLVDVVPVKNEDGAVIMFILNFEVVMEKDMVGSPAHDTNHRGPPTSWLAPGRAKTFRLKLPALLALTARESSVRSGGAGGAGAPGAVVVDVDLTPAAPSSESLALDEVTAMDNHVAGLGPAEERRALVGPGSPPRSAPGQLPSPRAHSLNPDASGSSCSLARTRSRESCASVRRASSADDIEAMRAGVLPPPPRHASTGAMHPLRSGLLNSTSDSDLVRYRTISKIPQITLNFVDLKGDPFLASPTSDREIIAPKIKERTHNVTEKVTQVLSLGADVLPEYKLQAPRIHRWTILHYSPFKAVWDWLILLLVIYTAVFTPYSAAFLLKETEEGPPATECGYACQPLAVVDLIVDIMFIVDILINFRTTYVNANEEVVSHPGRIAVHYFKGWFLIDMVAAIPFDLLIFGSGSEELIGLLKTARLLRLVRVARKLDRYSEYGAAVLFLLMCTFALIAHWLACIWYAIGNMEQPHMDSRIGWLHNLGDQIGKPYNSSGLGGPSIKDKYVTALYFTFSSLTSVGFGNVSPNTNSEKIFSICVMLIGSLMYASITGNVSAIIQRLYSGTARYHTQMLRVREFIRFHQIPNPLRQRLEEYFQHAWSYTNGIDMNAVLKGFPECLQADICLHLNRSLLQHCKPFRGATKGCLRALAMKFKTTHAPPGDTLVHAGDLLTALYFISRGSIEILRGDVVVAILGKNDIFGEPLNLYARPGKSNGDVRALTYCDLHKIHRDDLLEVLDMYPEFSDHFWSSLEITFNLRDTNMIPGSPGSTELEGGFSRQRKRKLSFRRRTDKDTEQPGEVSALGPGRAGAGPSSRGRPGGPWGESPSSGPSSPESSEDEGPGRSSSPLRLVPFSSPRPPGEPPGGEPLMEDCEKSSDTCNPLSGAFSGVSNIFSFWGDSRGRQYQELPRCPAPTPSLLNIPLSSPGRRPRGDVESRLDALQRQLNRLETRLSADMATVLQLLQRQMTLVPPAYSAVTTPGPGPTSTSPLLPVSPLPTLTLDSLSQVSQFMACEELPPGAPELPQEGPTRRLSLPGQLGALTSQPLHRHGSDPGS

[5] = molecular target: T5, hERG (hERG1a, Kv11.1) potassium channel (Homo sapiens, UniProt Q12809, F656V)
T5 construct: gene KCNH2
T5 sequence (Q12809 whole entry F656V): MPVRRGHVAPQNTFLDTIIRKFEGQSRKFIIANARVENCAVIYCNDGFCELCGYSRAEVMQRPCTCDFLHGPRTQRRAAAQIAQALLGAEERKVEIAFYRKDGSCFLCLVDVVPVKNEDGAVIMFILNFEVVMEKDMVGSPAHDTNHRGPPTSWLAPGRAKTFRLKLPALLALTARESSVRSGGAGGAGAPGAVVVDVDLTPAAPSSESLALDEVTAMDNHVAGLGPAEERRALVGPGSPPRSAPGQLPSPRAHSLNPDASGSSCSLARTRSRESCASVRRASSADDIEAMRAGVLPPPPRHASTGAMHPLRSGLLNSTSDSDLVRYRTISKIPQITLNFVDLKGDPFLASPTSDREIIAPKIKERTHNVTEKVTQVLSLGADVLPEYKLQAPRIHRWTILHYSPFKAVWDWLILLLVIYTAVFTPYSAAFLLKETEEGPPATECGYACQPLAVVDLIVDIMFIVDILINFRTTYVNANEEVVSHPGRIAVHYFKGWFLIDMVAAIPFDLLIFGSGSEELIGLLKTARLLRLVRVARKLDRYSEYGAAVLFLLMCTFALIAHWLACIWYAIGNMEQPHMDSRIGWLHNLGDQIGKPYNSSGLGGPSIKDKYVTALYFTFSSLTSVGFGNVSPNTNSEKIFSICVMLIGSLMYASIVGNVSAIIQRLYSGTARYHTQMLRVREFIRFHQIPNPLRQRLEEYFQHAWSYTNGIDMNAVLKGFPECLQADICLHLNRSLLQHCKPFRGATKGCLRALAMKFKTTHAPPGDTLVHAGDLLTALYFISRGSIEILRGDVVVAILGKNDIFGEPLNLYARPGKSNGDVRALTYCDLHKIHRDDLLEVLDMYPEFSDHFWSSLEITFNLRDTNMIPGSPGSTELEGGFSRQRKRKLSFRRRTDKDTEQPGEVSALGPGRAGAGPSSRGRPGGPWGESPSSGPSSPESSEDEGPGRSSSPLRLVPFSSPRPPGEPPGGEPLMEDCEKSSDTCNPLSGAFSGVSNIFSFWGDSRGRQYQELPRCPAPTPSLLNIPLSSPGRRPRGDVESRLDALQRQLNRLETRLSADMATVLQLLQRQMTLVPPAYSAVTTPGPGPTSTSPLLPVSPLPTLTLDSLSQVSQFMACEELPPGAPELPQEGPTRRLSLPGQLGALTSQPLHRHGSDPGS

T1 sequence (Q12809 whole entry Y652A): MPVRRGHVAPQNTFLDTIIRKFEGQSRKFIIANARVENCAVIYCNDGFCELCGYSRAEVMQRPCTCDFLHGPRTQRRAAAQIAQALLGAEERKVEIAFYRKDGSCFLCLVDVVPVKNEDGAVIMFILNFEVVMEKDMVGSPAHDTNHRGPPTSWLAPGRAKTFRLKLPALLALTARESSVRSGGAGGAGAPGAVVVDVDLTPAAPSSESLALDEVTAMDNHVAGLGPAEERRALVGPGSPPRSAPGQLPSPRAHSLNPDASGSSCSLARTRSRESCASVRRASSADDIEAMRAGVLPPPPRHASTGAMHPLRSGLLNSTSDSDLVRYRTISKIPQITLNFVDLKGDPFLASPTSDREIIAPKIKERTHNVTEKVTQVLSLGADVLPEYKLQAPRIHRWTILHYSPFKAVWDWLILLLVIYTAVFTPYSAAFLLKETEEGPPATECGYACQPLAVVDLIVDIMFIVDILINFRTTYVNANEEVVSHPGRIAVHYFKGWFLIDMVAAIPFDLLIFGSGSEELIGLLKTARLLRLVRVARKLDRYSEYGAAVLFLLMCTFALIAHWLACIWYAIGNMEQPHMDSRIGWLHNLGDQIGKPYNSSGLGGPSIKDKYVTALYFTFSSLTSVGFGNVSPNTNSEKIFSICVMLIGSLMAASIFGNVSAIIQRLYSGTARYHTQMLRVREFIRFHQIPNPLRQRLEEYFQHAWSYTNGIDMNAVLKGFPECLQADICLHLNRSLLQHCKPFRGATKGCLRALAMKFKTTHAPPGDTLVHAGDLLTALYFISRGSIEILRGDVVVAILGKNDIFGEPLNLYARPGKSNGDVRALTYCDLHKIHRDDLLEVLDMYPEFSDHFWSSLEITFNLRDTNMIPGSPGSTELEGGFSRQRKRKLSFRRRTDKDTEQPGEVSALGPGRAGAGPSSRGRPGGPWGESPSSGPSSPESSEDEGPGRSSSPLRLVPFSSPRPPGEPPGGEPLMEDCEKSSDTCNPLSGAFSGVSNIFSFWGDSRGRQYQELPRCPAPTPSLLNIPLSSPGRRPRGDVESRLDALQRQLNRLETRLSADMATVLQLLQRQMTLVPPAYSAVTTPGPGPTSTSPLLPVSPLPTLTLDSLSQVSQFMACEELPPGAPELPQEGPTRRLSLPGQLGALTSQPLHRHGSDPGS
T2 sequence (A0A8M1PIE0 1-1186): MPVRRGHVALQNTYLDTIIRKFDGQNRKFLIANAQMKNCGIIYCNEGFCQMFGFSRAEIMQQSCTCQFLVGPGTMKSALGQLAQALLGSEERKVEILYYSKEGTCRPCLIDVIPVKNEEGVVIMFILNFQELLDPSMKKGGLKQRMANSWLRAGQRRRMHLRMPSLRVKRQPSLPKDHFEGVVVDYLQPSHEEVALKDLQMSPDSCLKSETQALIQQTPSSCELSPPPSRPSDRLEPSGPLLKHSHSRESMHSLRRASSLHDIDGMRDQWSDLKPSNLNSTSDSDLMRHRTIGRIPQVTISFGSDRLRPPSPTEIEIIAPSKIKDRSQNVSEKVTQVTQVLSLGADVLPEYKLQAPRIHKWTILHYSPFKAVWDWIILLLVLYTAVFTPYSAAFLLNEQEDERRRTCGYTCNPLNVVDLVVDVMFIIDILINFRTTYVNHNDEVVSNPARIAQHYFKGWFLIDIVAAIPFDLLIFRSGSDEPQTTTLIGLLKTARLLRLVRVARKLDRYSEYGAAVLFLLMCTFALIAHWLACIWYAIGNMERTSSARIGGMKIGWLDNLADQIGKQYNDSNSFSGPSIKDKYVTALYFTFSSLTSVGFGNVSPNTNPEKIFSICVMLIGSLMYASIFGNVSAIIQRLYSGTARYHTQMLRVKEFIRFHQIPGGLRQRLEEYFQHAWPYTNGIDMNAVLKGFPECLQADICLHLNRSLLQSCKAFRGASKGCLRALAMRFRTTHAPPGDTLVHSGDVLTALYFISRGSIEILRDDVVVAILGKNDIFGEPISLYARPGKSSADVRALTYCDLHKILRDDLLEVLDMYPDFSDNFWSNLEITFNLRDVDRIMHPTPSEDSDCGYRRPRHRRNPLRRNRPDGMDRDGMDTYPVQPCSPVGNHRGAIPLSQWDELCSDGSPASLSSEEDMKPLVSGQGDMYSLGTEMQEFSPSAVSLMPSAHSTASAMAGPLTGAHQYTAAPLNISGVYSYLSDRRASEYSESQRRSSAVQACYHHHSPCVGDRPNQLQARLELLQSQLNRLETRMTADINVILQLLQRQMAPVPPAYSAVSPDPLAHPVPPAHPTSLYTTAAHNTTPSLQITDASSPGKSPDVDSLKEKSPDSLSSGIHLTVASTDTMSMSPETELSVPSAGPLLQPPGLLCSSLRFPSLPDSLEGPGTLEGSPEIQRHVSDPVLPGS

c1ccc2c(c1)ccc1ccccc12 [phenanthrene]
IC50 [1]: 0.46 ± 0.01 µM | IC50 [2]: 8.77 ± 0.93 µM | IC50 [3]: 17.6 ± 1.7 µM | whole-cell patch clamp, tail current block by 30 μM [4]: this effect was not statistically significantly different from block of WT IhERG | whole-cell patch clamp, tail current block by 30 μM [5]: also did not impair the inhibitory effect of phenanthrene, showing a trend towards increased block

— publication PMC8629796, “Inhibition of the hERG potassium channel by phenanthrene: a polycyclic aromatic hydrocarbon pollutant” (Cellular and Molecular Life Sciences: CMLS, 2021)
